Results: patent US20240124442A1, “TRICYCLIC-AMIDO-BICYCLIC PRMT5 INHIBITORS” (AMGEN INC., priority 2021, published 2024)

Key:
[1] = test system: HCT116 MTAP null cells; assay: HCT116 MTAP null cell line proliferation / cell viability (CellTiter-Glo, 6 days); format: cell-based; details: for IC50: 144 h, HCT116 MTAP null cells, 6 days treatment, CellTiter-Glo cell viability, read-out: HCT-116 MTAP null IC50
Protocol: (§1) HCT116 Proliferation Activity
(§2) To assess selective anti-proliferative activity of compounds of the invention in cells that have loss expression of MTAP, an HCT-116 isogenic cell line pair was utilized where one cell line was engineered to genetically knockout both MTAP alleles. Cell viability was then assessed in both the parent HCT-116 cell line and the MTAP null cell line after 6 days of treatment with compounds of the present invention. Selective anti-proliferative activity in the MTAP null cell line indicates MTA-cooperative inhibition of PRMT5 and ability to inhibit growth of cancer cells that have loss of MTAP.
(§3) HCT116 MTAP null and WT cells were seeded in 96-well tissue culture plates in RPMI 1640 media+10% fetal bovine serum. Plates were incubated overnight at 37° C. and 5% CO2. Cells were then treated with an 8- or 9-point serial dilution of compound, using a top concentration of 1, or 10 μM, 1:3 serial dilution steps and, a DMSO-only control. Cells were incubated in the presence of drug for 6 days. Effects on cell viability were measured with the CellTiter-Glo® Luminescent Cell Viability Assay (Promega) per manufacturer's recommendation. Assay plates were read on an EnVision™ Multilabel Reader using the Ultra-Sensitive luminescence module. IC50 values were calculated with GraphPad Prism v 5.01 using symmetrical sigmoidal dose-response least squares fit with Hill slope fixed to −1 and top constrain to 100% or GeneData Screener using a 4-parameter logistic model to fit dose response curves.
(§4) Alternatively, compounds could be assayed with a 384 well plate format:
(§5) Compounds were pre-spotted into 384 well plates with a 22-point serial dilution of compound, using a top concentration of 10 or 50 μM, 1:2 serial dilution steps and, a DMSO-only control. HCT116 MTAP null and WT cells were then seeded as above and after 6 days effects on cell viability were measured with the CellTiter-Glo® Luminescent Cell Viability Assay (Promega). Assay plates were read as above and IC50 values were calculated with GeneData Screener using a 4-parameter logistic model to fit dose response curves. The reported IC50 represents the value where the curve transits 50% of control.

[2] = test system: HCT116 WT cells; assay: HCT116 WT (parent) cell line proliferation / cell viability (CellTiter-Glo, 6 days); format: cell-based; details: Homo sapiens, HCT-116, 144 h, 6 days treatment
Protocol: as §1, §2, §3, §4, §5

| IC50 [1] | IC50 [2] | relative potency of the enantiomers (measured by IC50 in HCT116 MTAP null cell viability assay) ([1]; comparison of the two enantiomers separated by SFC, used to assign (S)/(R)) | SMILES |
| --- | --- | --- | --- |
| 0.003 µM | 0.329 µM | – | CNC(=O)c1ccc(-c2ccc3c(c2)OC[C@H]3N(C)C(=O)c2ccc3nc(N)c4cnn(C)c4c3c2)cn1 [Example 646, 4-amino-N,1-dimethyl-N-((3S)-6-(6-(methylcarbamoyl)-3-pyridinyl)-2,3-dihydro-1-benzofuran-3-yl)-1H-pyrazolo[4,3-c]quinoline-8-carboxamide] |
| 0.017 µM | 1.34 µM | – | CN(C(=O)c1cc2c3c(c(N)nc2cc1F)COC3)[C@@H]1COc2cc(C#N)ccc21 (single isomer, unassigned) [Example 551] |
| 0.026 µM | 2.24 µM | – | C[C@H]1OCc2c1c(N)nc1ccc(C(=O)N(C)[C@@H]3COc4cc(Br)ccc43)cc21 (single isomer, unassigned) [Example 331] |
| 0.005 µM | 0.201 µM | – | Cn1ncc2c(N)nc3ccc(C(=O)N(CC4CC4)[C@@H]4COCc5nc(C(F)(F)F)ccc54)cc3c21 (single isomer, unassigned) [Example 593] |
| 0.008 µM | 0.582 µM | – | CC(=O)Nc1ccc(-c2ccc3c(c2)OC[C@H]3N(C)C(=O)c2ccc3nc(N)c4cnn(C)c4c3c2)cn1 [Example 647, N-((3S)-6-(6-acetamido-3-pyridinyl)-2,3-dihydro-1-benzofuran-3-yl)-4-amino-N,1-dimethyl-1H-pyrazolo[4,3-c]quinoline-8-carboxamide] |
| 4.67 µM | 37.5 µM | – | [2H]C([2H])([2H])N(C(=O)c1cc2c3c(c(N)nc2cn1)COC3)[C@H]1COc2cc(C(F)(F)F)ccc21 (single isomer, unassigned) [Example 338] |
| 0.01 µM | 0.241 µM | – | CN(C(=O)c1cc2c(cn1)nc(N)c1cnn(C)c12)[C@@H]1COCc2c1ccc(C(F)(F)F)c2F (single isomer, unassigned) [Example 422] |
| 0.125 µM | 11.7 µM | – | CN(C(=O)c1cc2c(cc1Cl)nc(N)c1c2cnn1C)C1CCc2nc(C(F)(F)F)ccc21 (racemic) [Example 485, 4-amino-7-chloro-N,3-dimethyl-N-((5R)-2-(trifluoromethyl)-6,7-dihydro-5H-cyclopenta[b]pyridin-5-yl)-3H-pyrazolo[3,4-c]quinoline-8-carboxamide and 4-amino-7-chloro-N,3-dimethyl-N-((5S)-2-(trifluoromethyl)-6,7-dihydro-5H-cyclopenta[b]pyridin-5-yl)-3H-pyrazolo[3,4-c]quinoline-8-carboxamide] |
| 0.029 µM | 2.06 µM | – | CN(C(=O)c1cc2c3c(c(N)nc2cc1F)COC3)[C@@H]1COc2cc(-c3cnn(C)c3)ccc21 [Example 214, 4-amino-7-fluoro-N-methyl-N-((3S)-6-(1-methyl-1H-pyrazol-4-yl)-2,3-dihydro-1-benzofuran-3-yl)-1,3-dihydrofuro[3,4-c]-quinoline-8-carboxamide] |
| 0.028 µM | 1.46 µM | – | C[C@H]1OCc2c1c(N)nc1cnc(C(=O)N(C)[C@@H]3COc4cc(C(F)(F)F)ccc43)cc21 [Example 211, (3R)-4-amino-N,3-dimethyl-N-((3S)-6-(trifluoromethyl)-2,3-dihydro-1-benzofuran-3-yl)-1,3-dihydrofuro[3,4-c][1,7]-naphthyridine-8-carboxamide] |
| 0.143 µM | 7.5 µM | – | CN(C(=O)c1cc2c(cn1)nc(N)c1c2cnn1C)[C@@H]1COc2cc(C(F)(F)F)ccc21 [Example 256, 4-amino-N,3-dimethyl-N-((3S)-6-(trifluoromethyl)-2,3-dihydro-1-benzofuran-3-yl)-3H-pyrazolo[3,4-c][1,7]naphthyr-idine-8-carboxamide] |
| 0.416 µM | 10.1 µM | – | CN(C(=O)c1cc2c(cc1F)nc(N)c1cnn(C)c12)[C@H]1COCc2c1ccc(F)c2F (single isomer, unassigned) [Example 598] |
| 0.024 µM | 1.17 µM | more potent | CN(C(=O)c1ccc2nc(N)c3c(c2c1)COC3)[C@@H]1COc2cc(C(F)(F)F)ccc21 (single isomer, unassigned) [Example 317] |
| 0.083 µM | 2.67 µM | – | CN(C(=O)c1cc2c3c(c(N)nc2nc1Cl)COC3)[C@@H]1COCc2cc(C#N)ccc21 [Example 275, 4-amino-7-chloro-N-((4S)-7-cyano-3,4-dihydro-1H-2-benzopyran-4-yl)-N-methyl-1,3-dihydrofuro[3,4-c][1,8]-naphthyridine-8-carboxamide] |
| 0.657 µM | 10.8 µM | – | CN(C(=O)c1cc2c3c(c(N)nc2cc1Cl)COC3)[C@H]1COc2cc(C(F)(F)F)ccc21 (single isomer, unassigned) [Example 561] |
| 0.415 µM | 40.1 µM | – | CN(C(=O)c1cc2c(cc1F)nc(N)c1cnn(C)c12)[C@H]1COc2cc(C(F)(F)F)ncc21 (single isomer, unassigned) [Example 574] |
| 0.093 µM | 4.59 µM | – | CN(C(=O)c1ccc2nc(N)c3c(c2c1)COC3)C1COc2cc(Br)ccc21 (racemic) [Example 203, 4-amino-N-((3R)-6-bromo-2,3-dihydro-1-benzofuran-3-yl)-N-methyl-1,3-dihydrofuro[3,4-c]quinoline-8-carboxamide and 4-amino-N-((3S)-6-bromo-2,3-dihydro-1-benzofuran-3-yl)-N-methyl-1,3-dihydrofuro[3,4-c]quinoline-8-carboxamide] |
| 0.021 µM | 0.825 µM | – | Cn1ncc2c3cc(C(=O)N(CC4CC4)[C@@H]4COCc5nc(C(F)(F)F)ccc54)c(F)cc3nc(N)c21 (single isomer, unassigned) [Example 607] |
| 0.023 µM | 1.54 µM | – | CN(C(=O)c1cc2c(cc1F)nc(N)c1cnn(C)c12)[C@@H]1COc2cc(C(F)(F)F)cc(F)c21 (single isomer, unassigned) [Example 380] |
| 0.173 µM | 8.48 µM | – | CN(C(=O)c1cc2c3c(c(N)nc2cn1)COC3)[C@@H]1COc2cc(Cl)ccc21 (single isomer, unassigned) [Example 333] |
| 0.02 µM | 0.429 µM | – | CCN(C(=O)c1cc2c(cc1F)nc(N)c1c2cnn1C)[C@@H]1COCc2nc(C(F)(F)F)ccc21 [Example 305, 4-amino-N-ethyl-7-fluoro-3-methyl-N-((5S)-2-(trifluoro-methyl)-5,8-dihydro-6H-pyrano[3,4-b]pyridin-5-yl)-3H-pyrazolo[3,4-c]quinoline-8-carboxamide] |
| 0.184 µM | 6.24 µM | – | CN(C(=O)c1cc2c3c(c(N)nc2cn1)COC3)[C@@H]1CCc2cc(OC(F)(F)F)ccc21 (single isomer, unassigned) [Example 341] |
| 0.052 µM | 3.82 µM | – | CN(C(=O)c1ccc2nc(N)c3c(c2c1)COC3)[C@@H]1COc2cc(OC(F)F)ccc21 (single isomer, unassigned) [Example 526] |
| 0.037 µM | 3.65 µM | – | CN(C(=O)c1cc2c(cc1F)nc(N)c1c2cnn1C)[C@@H]1COCc2nc(C(F)(F)F)ccc21 [Example 515, 4-amino-7-fluoro-N,3-dimethyl-N-((5S)-2-(trifluoromethyl)-5,8-dihydro-6H-pyrano[3,4-b]pyridin-5-yl)-3H-pyrazolo[3,4-c]quinoline-8-carboxamide] |
| 0.004 µM | 0.063 µM | – | CN(C(=O)c1cc2c(cc1F)nc(N)c1cnn(C)c12)[C@@H]1COc2cc(S(F)(F)(F)(F)F)ccc21 (single isomer, unassigned) [Example 382] |
| 2.16 µM | 10.1 µM | – | CN(C(=O)c1ccc2nc(N)c3c(c2c1)COC3)[C@H]1COc2cc(S(F)(F)(F)(F)F)ccc21 (single isomer, unassigned) [Example 328] |
| 0.433 µM | 3.46 µM | – | Nc1nc2cc(Cl)c(C(=O)N(C3CC3)[C@H]3COc4cc(C(F)(F)F)ccc43)cc2c2c1COC2 [Example 443, 4-amino-7-chloro-N-cyclopropyl-N-((3R)-6-(trifluoromethyl)-2,3-dihydro-1-benzofuran-3-yl)-1,3-dihydrofuro[3,4-c]quinoline-8-carboxamide] |
| 0.222 µM | 5.88 µM | – | CN(C(=O)c1ccc2nc(N)c3c(c2c1)COC3)[C@@H]1CCOc2cc(C(F)(F)F)ccc21 (single isomer, unassigned) [Example 578] |
| 5.18 µM | 9.52 µM | – | CCN(C(=O)c1ccc2nc(N)c3c(c2c1)COC3)c1coc2cc(C(F)(F)F)ccc12 [Example 451, 4-amino-N-ethyl-N-(6-(trifluoromethyl)-1-benzofuran-3-yl)-1,3-dihydrofuro[3,4-c]quinoline-8-carboxamide] |
